Biological target: Tyrosine-protein kinase BTK (Homo sapiens, UniProt Q06187)
Assay: Lanthscreen Eu Kinase Binding assay: A Lanthscreen Eu Kinase Binding assay (Life Technologies) was performed to quantitate the ability of test compounds to bind to BTK. The assay is based on the binding and displacement of Alexa Fluor647-labeled Kinase Tracer #236 to the ATP-binding site of human full length His-tagged BTK (Life Technologies cat # PV3587) with TR-FRET detection using a europium-labeled anti-His antibody. The assay was assembled in 384-well low volume NBS black plates (Corning) where 2 nM BTK and test compound in DMSO at varying concentrations were pre-incubated for 30 min at 28° C. in assay buffer consisting of 50 mM HEPES, pH 7.4, 10 mM MgCl2, 1 mM EGTA. 100 μM Na3VO4 and 0.01% Brij 35. Then, 2 nM of Eu-anti His antibody and 30 nM Kinase Tracer were added and incubated for […] at 28° C. Following incubation, TR-FRET signal was read on an Envision plate reader (Excitation: 340 nm; Emissions: 615 and 665 nm). The 665: 615 nm emission ratio was calculated and converted to POC compared to control and blank wells.

Chain of Tyrosine-protein kinase BTK (Q06187 whole entry): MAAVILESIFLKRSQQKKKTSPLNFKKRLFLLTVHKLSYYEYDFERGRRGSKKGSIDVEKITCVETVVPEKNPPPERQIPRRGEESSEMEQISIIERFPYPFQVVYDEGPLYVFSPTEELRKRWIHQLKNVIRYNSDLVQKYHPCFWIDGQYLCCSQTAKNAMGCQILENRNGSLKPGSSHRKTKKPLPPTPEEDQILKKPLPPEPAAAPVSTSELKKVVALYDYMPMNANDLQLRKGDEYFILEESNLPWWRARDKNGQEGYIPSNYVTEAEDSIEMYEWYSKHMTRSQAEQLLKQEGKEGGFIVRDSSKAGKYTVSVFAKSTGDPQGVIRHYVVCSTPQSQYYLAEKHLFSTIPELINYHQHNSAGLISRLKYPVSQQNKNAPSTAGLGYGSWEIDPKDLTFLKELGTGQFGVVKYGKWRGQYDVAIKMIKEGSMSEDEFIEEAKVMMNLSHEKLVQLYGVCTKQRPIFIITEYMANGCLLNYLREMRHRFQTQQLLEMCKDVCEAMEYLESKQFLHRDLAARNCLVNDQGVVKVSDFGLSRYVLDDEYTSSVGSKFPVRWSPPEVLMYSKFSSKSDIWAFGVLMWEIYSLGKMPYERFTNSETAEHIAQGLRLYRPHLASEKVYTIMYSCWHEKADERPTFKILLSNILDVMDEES

## C=CC(=O)N1CC(c2cc3cc(C4CC4)ccc3c(=O)n2-c2cccc(-c3ccnc(N)c3)c2CO)C1
  IC50: 0.9 nM

Reference: ChEMBL document CHEMBL5727601, “Isoquinolones as BTK inhibitors” (2020)
